This experiment has as its system Toxoplasma gondii growth in host cells, no IFN-gamma. The experiment is described as follows: compound activity on host-cell Toxoplasma growth – dose response (AID 1259420).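 Also: host cells were HeLa; final incubation lasted 72 hours.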

SMILES strings stand for the structures. Several values for one entry are separate records, joined by “and”; a condition that tells them apart may be missing. Identical values can stand only once. Results filed as inconclusive are left out. Activity calls are given as the source filed them. No rule for the calls is given here.

The term AC50 denotes the concentration at which the activity in the assay is half-maximal. With `C[C@@H]1CN(Cc2ccc(F)cc2)CCN1C(=O)COc1ccc(Cl)cc1NC(N)=O`, the AC50 was > 39 µM (inactive). The value for `COc1ccc(S(=O)(=O)N2CCCCN3[C@H](CO)[C@H](c4ccc(C#CCC(C)C)cc4)[C@H]3C2)cc1` was 8.14 µM and 12.7 µM; that for `CCN1CCN(Cc2ccc(Nc3nc(-c4ccc(OC)cc4)nc4ccccc34)cc2)CC1` was 13.5 µM. On to `CC(C)(C)c1ccc(S(=O)(=O)N2CCC[C@@H]2C(=O)NCCc2csc(-c3ccccc3)n2)cc1`, for which the AC50 was > 39 µM (inactive). Consider `CCc1ccccc1S(=O)(=O)N1CCc2nc(-c3ccccc3)sc2C1`, for which the AC50 was 3.94 µM and 3.08 µM. The value for `OC[C@H]1O[C@@H](n2cnc3c(NC4CCCC4)nc(Cl)nc32)[C@H](O)[C@@H]1O` was > 39 µM (inactive); that for `O=S(=O)(c1cccs1)N1CCCCN2[C@H](CO)[C@H](c3ccc(/C=C/c4ccccc4)cc3)[C@@H]2C1` was 29 µM; that for `CCN(C)C(=O)c1ccc2ccc(N(C)Cc3ccc(OC)cc3)n2c1` was 19.2 µM.

For the molecule `OC(c1cc(C(F)(F)F)nc2c(C(F)(F)F)cccc12)C1CCCCN1` (stereo unspecified), the AC50 is 20.4 µM. With `O=C(Nc1ccccc1F)N1C[C@@H]2N[C@H](C1)C2c1ccc(/C=C/c2ccccc2)cc1` (stereo partly specified) the figure was 18.6 µM; with `COc1cccc(-c2nc3c(s2)CN(S(=O)(=O)c2ccccc2C)CC3)c1`, 34.7 µM. With `CC(=O)N(C)C1(c2ccccc2)CCN(CCC[C@]2(c3ccc(Cl)c(Cl)c3)CCCN(C(=O)c3ccccc3)C2)CC1` the figure was 16.7 µM; with `CN(C[C@H]1[C@H](c2ccccc2)[C@@H](CO)N1CC1CC1)C(=O)c1ccc(F)cc1`, > 39 µM (inactive); with `Cc1ccccc1CN1C[C@@H]2c3nc(N4CCCC(C)C4)ncc3CS(=O)(=O)[C@H]2C1` (stereo partly specified), 28.2 µM.

`Cc1nc2ccccn2c1CN(C)Cc1cnn(-c2ccccc2)c1`: the concentration at half-maximal activity (AC50) was 12.2 µM. The value for `Nc1ncnc2c1ncn2[C@@H]1O[C@H](C[C@@H](N)CC[C@H](N)C(=O)O)[C@@H](O)[C@H]1O` was 1.38 µM. The value for `O=C(Nc1ccc(F)cc1)N1C[C@@H]2N[C@H](C1)C2c1ccc(/C=C/c2ccccc2)cc1` (stereo partly specified) was 9.87 µM; that for `O=C(Nc1ccc(F)cc1)N1CC(=O)N2[C@H](C1)[C@H](c1ccc(-c3cccc(F)c3)cc1)[C@@H]2CO` was 15 µM. With `CCCNC(=O)N1[C@H](C#N)[C@H](c2ccc(-c3ccccc3F)cc2)[C@@H]1CO` the figure was 4.65 µM; with `O=C(c1ccc(F)cc1)N1CC(=O)N2[C@H](C1)[C@@H](c1ccc(C#CCC3CCCC3)cc1)[C@@H]2CO`, 14.3 µM.

`COC(=O)[C@@H]1C[C@@H](N(C)C)CN1S(=O)(=O)c1c(C)ccc2nsnc12`: the AC50 is > 39 µM (inactive). The value for `O=C(Nc1ccc(F)cc1)N1CC(=O)N2[C@H](CO)[C@H](c3ccc(-c4cccc(F)c4)cc3)[C@H]2C1` was 31.1 µM; that for `COc1ccc(C#Cc2ccc([C@@H]3[C@H]4CN(C(=O)NC(C)C)CC(=O)N4[C@H]3CO)cc2)cc1` was > 39 µM (inactive); that for `C[C@H](CO)N1C[C@H](C)[C@H](CN(C)C(=O)c2cc(Cl)cc(Cl)c2)OCc2ccccc2-c2c(n(C)c3ccccc23)C1=O` was 15.3 µM. With `CCCNC(=O)N1[C@H](CO)[C@@H](c2ccc(-c3ccccc3F)cc2)[C@@H]1C#N` the figure was > 39 µM (inactive). With `CN(C)C(=O)c1ccc(-c2ccc3c(c2)[C@@H]2[C@@H](CCN2C(=O)C2CCCC2)[C@@H](CO)N3C)cc1` the figure was 17.5 µM; with `COc1cc2c(cc1O)CC[C@@H]1[C@@H]2CC[C@]2(C)[C@@H](O)CC[C@@H]12`, 11.2 µM and 5.79 µM. `O=C(O)CN1C[C@H]2c3ccccc3C(OCC3CC3)[C@@H]2C1` (stereo partly specified): the AC50 is > 39 µM (inactive).

For `CCCNC(=O)N1[C@H](C#N)[C@@H](c2ccc(-c3ccccc3F)cc2)[C@H]1CO`, the AC50 was 31.9 µM. Turning to `O=C(c1ccc(F)cc1)N1CC(=O)N2[C@H](C1)[C@H](c1ccc(C#CCC3CCCC3)cc1)[C@@H]2CO`, the AC50 is 16.9 µM. The value for `O=C(Nc1ccc(Cl)cc1)N1[C@@H]2CNC[C@H]1C2c1ccc(-c2ccccc2)cc1` (stereo partly specified) was 6.4 µM; that for `CCOC(=O)c1nn(Cc2ccccc2)c2c1CN(C(=O)CN1CC(c3ccccc3)CC1=O)CC2` (stereo unspecified) was 28.6 µM.

As for `CCN1C[C@@H](COC)[C@]2(CCN(C(=O)COc3ccccc3C)C2)C1`, the AC50 is > 39 µM (inactive). With `CN1CCN(C(=O)c2nn(C)c3c2CCN(S(C)(=O)=O)C3)CC1` the figure was > 39 µM (inactive). With `COc1cccc(-c2nc3c(s2)CN(S(=O)(=O)c2ccc(C)cc2)CC3)c1` the figure was 34 µM; with `COc1ccc(-c2ccc([C@@H]3[C@@H](CO)N4C(=O)CN(Cc5ccccc5)C[C@H]34)cc2)cc1`, > 39 µM (inactive). The value for `CC(C)Oc1ccc(NC(=O)c2nc3c(n2C(C)C)CCN(C(=O)c2ccccc2)C3)cc1` was 31.9 µM. Regarding `COc1ccccc1NC(=O)N1CCCCN2[C@H](CO)[C@H](c3ccc(-c4cccc(C#N)c4)cc3)[C@@H]2C1`, the AC50 was 33.7 µM. With `N#Cc1cccc(-c2ccc3c(c2)[C@H]2[C@H](CCN2Cc2ccc4c(c2)OCO4)[C@@H](CO)N3)c1` the figure was 15 µM; with `O=C(Nc1cccc(F)c1)C1CC12CCN(S(=O)(=O)c1ccccc1)C2` (stereo unspecified), 35.5 µM; with `Cc1cccc(-c2ccc([C@@H]3[C@H](CO)N4CCCCN(S(=O)(=O)c5ccccc5F)C[C@@H]34)cc2)c1`, 19.7 µM.

Consider `COc1cc([C@@H]2c3cc4c(cc3C(OC3OC5COC(C)OC5C(O)C3O)C3OCC(=O)[C@@H]32)OCO4)cc(OC)c1O` (stereo partly specified), for which the AC50 was 13.7 µM. The value for `Cc1ccn(CCNc2nccc(-c3c(C)nn(C)c3C)n2)n1` was > 39 µM (inactive). With `C[C@H](NC(=O)C[C@H]1CC[C@@H]2[C@@H](COc3ccc(NS(=O)(=O)c4ccc(Cl)cc4)cc3C(=O)N2C)O1)c1ccccc1` the figure was 13.7 µM and 36.1 µM. As for `C[C@@H]1CN([C@@H](C)CO)C(=O)Cc2cc(NC(=O)C3CCCCC3)ccc2O[C@@H]1CN(C)Cc1ccc(Cl)c(Cl)c1`, the AC50 is 13.9 µM. With `COc1ccc(Cc2cnc(N)nc2N)cc1OC` the figure was 25.8 µM. The value for `COCC#Cc1ccc([C@@H]2[C@H]3CN(C(=O)C4CCCCC4)CC(=O)N3[C@H]2CO)cc1` was > 39 µM (inactive); that for `COc1ccccc1-c1ccc(C2[C@@H]3CN(S(=O)(=O)c4ccc(C)cc4)C[C@H]2N3)cc1` (stereo partly specified) was 15.2 µM and > 20 µM (inactive). With `Cc1cc(C(=O)Nc2ccc3c(c2)C(=O)N(C)[C@@H]2CC[C@@H](CC(=O)NCc4ccc(-c5ccccc5)cc4)O[C@@H]2CO3)no1` the figure was 17.9 µM; with `Cc1ccc(C)c(S(=O)(=O)N2CCC3(CC2)c2ncc(-c4cccc(F)c4)n2CCN3C)c1`, > 20 µM (inactive). Turning to `Cc1cccc(-c2nc(CN(c3ccccc3)S(=O)(=O)c3ccccc3)c(C)o2)c1`, the half-maximal activity concentration (AC50) is 17.4 µM. With `COc1cccc(S(=O)(=O)N2CCCCN3[C@@H](CO)[C@@H](c4ccc(C#CCC(C)C)cc4)[C@@H]3C2)c1` the figure was 12.1 µM and 10.1 µM. The value for `O=C(O)CC1CCC(c2ccc(-c3ccc(Nc4ccc(C(F)(F)F)nc4)cn3)cc2)CC1` (stereo unspecified) was 17.2 µM. As to `N#C[C@@H]1[C@@H](c2ccc(-c3cccc(F)c3)cc2)[C@H](CO)N1C(=O)NC1CCCC1`, the AC50 was > 20 µM (inactive). The value for `CC(C)N1CCN(CC#N)C2(CCN(C(=O)c3ccc[nH]3)C2)C1=O` (stereo unspecified) was 37.9 µM. Turning to `C[C@H](CO)N1C[C@H](C)[C@H](CN(C)C(=O)Nc2ccc(C(F)(F)F)cc2)Oc2c(NC(=O)c3ccc(-c4nccs4)cc3)cccc2C1=O`, the concentration at half-maximal activity (AC50) was 9.48 µM. With `O=C1c2c(O)ccc(O)c2C(=O)c2c(NCCNCCO)ccc(NCCNCCO)c21` the figure was 0.209 µM; with `N#Cc1cccc(-c2ccc3c(c2)[C@@H]2[C@@H](CCN2S(=O)(=O)c2ccc(F)cc2)[C@H](CO)N3)c1`, 10.1 µM.

On to `COc1cccc(S(=O)(=O)N2CC[C@@H]3[C@H](CO)Nc4ccc(C5=CCCCC5)cc4[C@@H]32)c1`, for which the AC50 was 14.1 µM. The value for `C[C@@H]1CN([C@@H](C)CO)C(=O)c2cccc(NC(=O)NC3CCCCC3)c2O[C@H]1CN(C)Cc1ccc(C(F)(F)F)cc1` was > 39 µM (inactive). With `O=C(Cc1ccccc1)N1CC(=O)N2[C@H](CO)[C@@H](c3ccc(-c4ccc(F)cc4)cc3)[C@@H]2C1` the figure was 19.2 µM; with `COc1ccccc1-c1ccc2c(c1)[C@H]1[C@H](CCN1C(=O)C1CCC1)[C@H](CO)N2`, 13 µM. With `OC[C@H]1[C@@H](c2ccc(C#Cc3ccccc3F)cc2)[C@@H]2CN(CC3CCOCC3)CCCCN12` the figure was 14.8 µM. Regarding `Cc1ccccc1-c1ccc(C2[C@@H]3CN(C(=O)c4ccc(F)cc4)C[C@H]2N3)cc1` (stereo partly specified), the AC50 is > 42 µM (inactive). The value for `CCCCCCC(C)(C)c1ccc(C2CC(O)CCC2CCCO)c(O)c1` (stereo unspecified) was 17.9 µM; that for `CN(C)Cc1noc2c1CN(Cc1nccn1C)CC2` was > 39 µM (inactive). With `O=C(Nc1cccnc1)c1cc(-c2cnc(-c3ccccc3)nc2)cn1CC1CC1` the figure was 27.9 µM and 19.8 µM. With `O=C(C[C@@H]1CC[C@@H]2[C@H](COC[C@@H](O)CN2Cc2ccc(Oc3ccccc3)cc2)O1)N1CCN(c2ccccc2)CC1` the figure was 16.5 µM. Take `COc1cccc(NC(=O)N2CC(=O)N3[C@H](CO)[C@H](c4ccc(C#CCC5CCCC5)cc4)[C@H]3C2)c1`: the AC50 was 13.9 µM and 16.2 µM. The value for `CN(C[C@H]1N[C@@H](CO)[C@@H]1c1ccc(C2=CCCC2)cc1)C(=O)c1cccc(F)c1` was 3.41 µM and 4.45 µM; that for `COCCN1CCN(S(=O)(=O)c2ccccc2)Cc2cccnc21` was 31.1 µM; that for `C[C@H]1CN([C@@H](C)CO)C(=O)c2cccc(NC(=O)c3ccc(-c4nccs4)cc3)c2O[C@@H]1CN(C)C(=O)Nc1ccc(C(F)(F)F)cc1` was > 42 µM (inactive). The value for `O=C(Nc1ccc(F)cc1)N1CC(=O)N2[C@H](C1)[C@@H](c1ccc(-c3cccc(F)c3)cc1)[C@@H]2CO` was 29.4 µM and 15.6 µM. `Cc1nc(N2CCOCC2)nc2c1CCN(C(=O)C1CC1)CC2`: the AC50 is 21.7 µM.

Regarding `Cc1ccc(S(=O)(=O)N2CC[C@@H]3[C@H]2c2cc(-c4cccc(C(=O)N(C)C)c4)ccc2N[C@@H]3CO)cc1`, the half-maximal activity concentration (AC50) is 30.1 µM. In the case of `Cc1cc(C(C)(C)CC(C)(C)C)ccc1OCCOCC[N+](C)(C)Cc1ccccc1`, the AC50 is 12.5 µM.
